{"source": "paper PMC12858634", "about": "“Functional characterisation of Target of Rapamycin (TOR) signalling in Physcomitrella” (Plant Cell Reports, 2026)", "target": "T1, PpFKBP12 (Physcomitrium patens, UniProt A0A2K1L9Z1, M56K/G57Q/R58E)", "T1 construct": "gene LOC112274967", "T1 sequence (A0A2K1L9Z1 entry or part of it M56K/G57Q/R58E)": "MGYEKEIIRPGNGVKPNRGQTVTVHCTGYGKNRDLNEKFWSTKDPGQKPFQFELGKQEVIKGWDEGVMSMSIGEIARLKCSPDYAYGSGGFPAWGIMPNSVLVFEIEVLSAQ", "assay": "yeast fkbp12 deletion complementation, growth spot assay", "type": "cell-based", "details": "rapamycin 100 or 200 nM, galactose medium, 30 °C, 5 days; acts as FKBP12-rapamycin complex on host yeast TOR"}
{"smiles": "CO[C@H]1C[C@@H]2CC[C@@H](C)[C@@](O)(O2)C(=O)C(=O)N2CCCC[C@H]2C(=O)O[C@H]([C@H](C)C[C@@H]2CC[C@@H](O)[C@H](OC)C2)CC(=O)[C@H](C)/C=C(\\C)[C@@H](O)[C@@H](OC)C(=O)[C@H](C)C[C@H](C)/C=C/C=C/C=C/1C", "note": "[rapamycin]", "values": [{"measurement": "yeast fkbp12 deletion complementation, growth spot assay", "result": "all but PpFKBP12^W40D complemented the rapamycin-resistant phenotype of fkbp12Δ cells"}]}
